# Measured values reported in patent US10336768B2, “Pyrimidine compounds and methods using the same” (Yuma Therapeutics, Inc., priority 2014, dated 2019).
# Tested on: T1, His-tagged-Hsp90
# T1 construct: fused on or other part: His tag (captured on Ni2+-coated beads)
# Experiment: Hsp90 biochemical assay (AlphaLISA)
# Type: binding
# Conditions: IC50 class; AlphaLISA (primary assay); read-out: Hsp90 inhibitory activity
# Method: This assay employs biotinylated geldanamycin, His-tagged-Hsp90, and Ni^+2 coated beads. This assay is homogenous and miniaturized to 384-well plates. Measurement of binding activity was performed on an Envision reader. […] This assay is the primary assay for evaluating compounds of the invention.
row,SMILES,IC50 [nM]
1,COc1cc(-c2cc(C)nc(N)n2)c(C(F)(F)F)cc1Cl [compound 1],> 10000
2,"CN(CC(F)(F)F)C(=O)c1cc2c(-c3c(Cl)cc(Cl)c4c3CCO4)nc(N)nc2s1 [compound 70, 2-amino-4-(5,7-dichloro-2,3-dihydrobenzofuran-4-yl)-N-methyl-N-(2,2,2-trifluoroethyl)thieno[2,3-d]pyrimidine-6-carboxamide]",4000 to 10000
3,"CNC(=O)c1cc2c(-c3c(Cl)cc(Cl)c4c3CCO4)nc(N)nc2s1 [compound 63, 2-amino-4-(5,7-dichloro-2,3-dihydrobenzofuran-4-yl)-N-methylthieno[2,3-d]pyrimidine-6-carboxamide]",< 1000
4,"CSc1cc(-c2c(Cl)cc(Cl)c3c2CCO3)nc(N)n1 [compound 51, 4-thiomethyl-6-(5,7-dichloro-2,3-dihydrobenzofuran-4-yl)pyrimidin-2-amine]",< 1000
5,"Nc1nc(-c2c(Cl)cc(Cl)c3c2CCO3)c2[nH]cc(C=O)c2n1 [compound 56, 2-amino-4-(5,7-dichloro-2,3-dihydrobenzofuran-4-yl)-5H-pyrrolo[3,2-d]pyrimidine-7-carbaldehyde]",> 10000
6,CCNC(=O)N1Cc2nc(N)nc(-c3c(Cl)cc(Cl)c4c3CCO4)c2C1 [compound 17],> 10000
7,COc1cc(-c2cc(Cl)nc(N)n2)ccc1Cl [Compound 79],< 1000
8,"Cc1cc(-c2c(Cl)cc(Cl)c3c2CCO3)nc(N(C)C)n1 [compound 4, 4-(5,7-Dichloro-2,3-dihydrobenzofuran-4-yl)-N,N,6-trimethylpyrimidin-2-amine]",> 10000
9,"Nc1nc(-c2c(Cl)cc(Cl)c3c2CCO3)c2cc(C(=O)NC3COC3)sc2n1 [compound 67, 2-amino-4-(5,7-dichloro-2,3-dihydrobenzofuran-4-yl)-N-(oxetan-3-yl)thieno[2,3-d]pyrimidine-6-carboxamide]",< 1000
10,COc1cc(-c2nc(N)nc(SC)n2)c(Cl)cc1Cl [compound 34],< 1000
11,"CN(C(=O)c1cc2c(-c3c(Cl)cc(Cl)c4c3CCO4)nc(N)nc2s1)C1COC1 [compound 72, 2-amino-4-(5,7-dichloro-2,3-dihydrobenzofuran-4-yl)-N-methyl-N-(oxetan-3-yl)thieno[2,3-d]pyrimidine-6-carboxamide]",1000 to 4000
12,"CC(C)(O)c1cc2c(-c3c(Cl)cc(Cl)c4c3CCO4)nc(N)nc2s1 [compound 77, 2-(2-amino-4-(5,7-dichloro-2,3-dihydrobenzofuran-4-yl)thieno[2,3-d]pyrimidin-6-yl)propan-2-ol]",1000 to 4000
13,"CNc1nc(C)cc(-c2c(Cl)cc(Cl)c3c2CCO3)n1 [compound 3, 4-(5,7-Dichloro-2,3-dihydrobenzofuran-4-yl)-N,6-dimethylpyrimidin-2-amine]",> 10000
14,"COc1cc(-c2nc(N)nc3c(Br)c[nH]c23)c(Cl)cc1Cl [compound 57, 7-bromo-4-(2,4-dichloro-5-methoxyphenyl)-5H-pyrrolo[3,2-d]pyrimidin-2-amine]",> 10000
15,"Nc1nc(-c2c(Cl)cc(Cl)c3c2CCO3)c2cc(C(=O)NCCN3CCCC3)sc2n1 [compound 58, 2-amino-4-(5,7-dichloro-2,3-dihydrobenzofuran-4-yl)-N-(2-(pyrrolidin-1-yl)ethyl)thieno[2,3-d]pyrimidine-6-carboxamide]",< 1000
16,COc1cc(-c2nc(N)nc(-c3cc(OC)c(Cl)cc3Cl)n2)c(Cl)cc1Cl [compound 37],> 10000
17,"Nc1nc(-c2c(Cl)cc(Cl)c3c2CCO3)c2cc(C(=O)N3CCCC3)sc2n1 [compound 69, (2-amino-4-(5,7-dichloro-2,3-dihydrobenzofuran-4-yl)thieno[2,3-d]pyrimidin-6-yl)(pyrrolidin-1-yl)methanone]",1000 to 4000
18,"N#CCCNC(=O)c1cc2c(-c3c(Cl)cc(Cl)c4c3CCO4)nc(N)nc2s1 [compound 59, 2-amino-N-(2-cyanoethyl)-4-(5,7-dichloro-2,3-dihydrobenzofuran-4-yl)thieno[2,3-d]pyrimidine-6-carboxamide]",< 1000
19,"CCC(=O)c1cc2c(-c3c(Cl)cc(Cl)c4c3CCO4)nc(N)nc2s1 [compound 76, 1-(2-amino-4-(5,7-dichloro-2,3-dihydrobenzofuran-4-yl)thieno[2,3-d]pyrimidin-6-yl)propan-1-one]",< 1000
20,Cc1cc(-c2cc(OC(C)C)c(Cl)cc2Cl)nc(N)n1 [compound 2],1000 to 4000
21,"Nc1nc(-c2c(Cl)cc(Cl)c3c2CCO3)cc(C(F)(F)F)n1 [compound 50, 4-trifluoromethyl-6-(5,7-dichloro-2,3-dihydrobenzofuran-4-yl)pyrimidin-2-amine]",1000 to 4000
22,"COC(=O)n1ccc2nc(N)nc(-c3c(Cl)cc(Cl)c4c3CCO4)c21 [compound 54, Methyl 2-amino-4-(5,7-dichloro-2,3-dihydrobenzofuran-4-yl)-5H-pyrrolo[3,2-d]pyrimidine-5-carboxylate]",> 10000

row,SMILES,IC50 [nM]
1,COc1ccc(Cl)c(-c2cc(Cl)nc(N)n2)c1 [Compound 78],1000 to 4000
2,"Nc1nc2c(c(-c3c(Cl)cc(Cl)c4c3CCO4)n1)CCCC2 [compound 15, 4-(5,7-dichloro-2,3-dihydrobenzofuran-4-yl)-5,6,7,8-tetrahydroquinazolin-2-amine]",4000 to 10000
3,"Nc1nc(-c2c(Cl)cc(Cl)c3c2CCO3)c2cc(C(=O)NCCO)sc2n1 [compound 60, 2-amino-4-(5,7-dichloro-2,3-dihydrobenzofuran-4-yl)-N-(2-hydroxyethyl)thieno[2,3-d]pyrimidine-6-carboxamide]",< 1000
4,"Nc1nc(-c2c(Cl)cc(Cl)c3c2CCO3)c2cc(C(=O)NC3CC3)sc2n1 [compound 62, 2-amino-N-cyclopropyl-4-(5,7-dichloro-2,3-dihydrobenzofuran-4-yl)thieno[2,3-d]pyrimidine-6-carboxamide]",< 1000
5,"CN(C)C(=O)c1cc2c(-c3c(Cl)cc(Cl)c4c3CCO4)nc(N)nc2s1 [compound 66, 2-amino-4-(5,7-dichloro-2,3-dihydrobenzofuran-4-yl)-N,N-dimethylthieno[2,3-d]pyrimidine-6-carboxamide]",< 1000
6,"Nc1nc(-c2c(Cl)cc(Cl)c3c2CCO3)c2cc(C(=O)NCC(F)(F)F)sc2n1 [compound 61, 2-amino-4-(5,7-dichloro-2,3-dihydrobenzofuran-4-yl)-N-(2,2,2-trifluoroethyl)thieno[2,3-d]pyrimidine-6-carboxamide]",< 1000
7,"Nc1nc(Cl)cc(-c2c(Cl)cc(Cl)c3c2CCO3)n1 [compound 49, 4-chloro-6-(5,7-dichloro-2,3-dihydrobenzofuran-4-yl)pyrimidin-2-amine]",< 1000
8,"COc1cc(-c2nc(N)nc3c2CCC3)c(Cl)cc1F [compound 11, 4-(2-chloro-4-fluoro-5-methoxyphenyl)-6,7-dihydro-5H-cyclopenta[d]pyrimidin-2-amine]",4000 to 10000
9,"Nc1nc(Cl)c(N)c(-c2c(Cl)cc(Cl)c3c2CCO3)n1 [compound 52, 4-chloro-6-(5,7-dichloro-2,3-dihydrobenzofuran-4-yl)pyrimidine-2,5-diamine]",< 1000
10,COc1cc(-c2cc(C)nc(N)n2)c(Cl)cc1Cl [compound 38],1000 to 4000
11,"Nc1nc(-c2c(Cl)cc(Cl)c3c2CCO3)c2cc(C(=O)NC3CCC3)sc2n1 [compound 65, 2-amino-N-cyclobutyl-4-(5,7-dichloro-2,3-dihydrobenzofuran-4-yl)thieno[2,3-d]pyrimidine-6-carboxamide]",< 1000
12,"CN(CCC#N)C(=O)c1cc2c(-c3c(Cl)cc(Cl)c4c3CCO4)nc(N)nc2s1 [compound 71, 2-amino-N-(2-cyanoethyl)-4-(5,7-dichloro-2,3-dihydrobenzofuran-4-yl)-N-methylthieno[2,3-d]pyrimidine-6-carboxamide]",< 1000
13,COc1cc(-c2cc(SC)nc(N)n2)c(Cl)cc1Cl [compound 35],< 1000
14,"CON(C)C(=O)c1cc2c(-c3c(Cl)cc(Cl)c4c3CCO4)nc(N)nc2s1 [compound 75, 2-amino-4-(5,7-dichloro-2,3-dihydrobenzofuran-4-yl)-N-methoxy-N-methylthieno[2,3-d]pyrimidine-6-carboxamide]",< 1000
15,"Nc1nc(O)cc(-c2c(Cl)cc(Cl)c3c2CCO3)n1 [compound 53, 2-amino-6-(5,7-dichloro-2,3-dihydrobenzofuran-4-yl)pyrimidin-4-ol]",> 10000
16,CNc1cc(-c2c(Cl)cc(Cl)c3c2CCO3)nc(N)n1 [compound 33],4000 to 10000
17,"CN(C(=O)c1cc2c(-c3c(Cl)cc(Cl)c4c3CCO4)nc(N)nc2s1)C1CC1 [compound 74, 2-amino-N-cyclopropyl-4-(5,7-dichloro-2,3-dihydrobenzofuran-4-yl)-N-methylthieno[2,3-d]pyrimidine-6-carboxamide]",1000 to 4000
18,CCNC(=O)Cn1ccc2nc(N)nc(-c3c(Cl)cc(Cl)c4c3CCO4)c21 [compound 31],> 10000
19,"COCCNC(=O)c1cc2c(-c3c(Cl)cc(Cl)c4c3CCO4)nc(N)nc2s1 [compound 64, 2-amino-4-(5,7-dichloro-2,3-dihydrobenzofuran-4-yl)-N-(2-methoxyethyl)thieno[2,3-d]pyrimidine-6-carboxamide]",< 1000
20,CCNC(=O)Cn1ccc2c(-c3c(Cl)cc(Cl)c4c3CCO4)nc(N)nc21 [compound 32],> 10000
21,"Nc1nc(-c2c(Cl)cc(Cl)c3c2CCO3)c2cc(C(=O)N3CCOCC3)sc2n1 [compound 68, (2-amino-4-(5,7-dichloro-2,3-dihydrobenzofuran-4-yl)thieno[2,3-d]pyrimidin-6-yl)(morpholino)methanone]",1000 to 4000
22,Cn1ccc2c(-c3c(Cl)cc(Cl)c4c3CCO4)nc(N)nc21 [compound 30],> 10000

# Same assay, conditions: known Hsp90 inhibitor, biotinylated geldanamycin; read-out: IC50 (AlphaLISA assay validation)
row,SMILES,IC50 [nM]
1,"CC(C)NCCCn1c(Sc2cc3c(cc2I)OCO3)nc2c(N)ncnc21 [PU-H71, reference compound]",60
